Consider 4 molecules from ChEMBL document CHEMBL6096638, “Design, synthesis and biological evaluation of novel TMPRSS2-PROTACs with florosubstituted 4-guanidino-N-phenylbenzamide derivative ligands” (Bioorg Med Chem, 2024).

Assay [1] deals with MRC5. In words: Antiproliferative activity against human MRC5 cells assessed as inhibition of cell growth incubated for 48 hrs by CCK-8 assay. It is filed as functional, cell-based. Conditions: MRC5, 48 h. In general terms: Formazan colour is commonly taken as a measure of viable cells.
Assay [2] deals with AGS. In words: Antiproliferative activity against human AGS cells assessed as inhibition of cell growth incubated for 48 hrs by CCK-8 assay. It is filed as functional, cell-based.
Assay [3] concerns PC-3. In words: Antiproliferative activity against human PC-3 cells assessed as inhibition of cell growth incubated for 48 hrs by CCK-8 assay. It counts as functional, cell-based. Conditions: PC-3, 48 h.
In assay [4] the test system is Calu-3. The assay is described as follows: Antiproliferative activity against human Calu-3 cells assessed as inhibition of cell growth incubated for 48 hrs by CCK-8 assay. It is filed as functional, cell-based. The conditions noted are these: Calu-3, 48 h.
Assay [5] deals with SH-SY5Y. The assay is described as follows: Antiproliferative activity against human SH-SY5Y cells assessed as inhibition of cell growth incubated for 48 hrs by CCK-8 assay. It is filed as functional, cell-based.
Assay [6] concerns CWR22R. In words: Antiproliferative activity against human 22Rv1 cells assessed as inhibition of cell growth incubated for 48 hrs by CCK-8 assay. It counts as functional, cell-based. The conditions noted are these: 22Rv1, 48 h.
Assay [7] relates to HT-29. In words: Antiproliferative activity against human HT-29 cells assessed as inhibition of cell growth incubated for 48 hrs by CCK-8 assay. It counts as functional, cell-based. Conditions: HT-29, 48 h.
In assay [8] the test system is K562. The assay is described as follows: Antiproliferative activity against human K562 cells assessed as inhibition of cell growth incubated for 48 hrs by CCK-8 assay. It counts as functional, cell-based. The conditions noted are these: K562, 48 h.
The test system of assay [9] is 786-0. The assay is described as follows: Antiproliferative activity against human 786-0 cells assessed as inhibition of cell growth incubated for 48 hrs by CCK-8 assay. It is filed as functional, cell-based. Conditions: 786-0, 48 h.
Assay [10] deals with SK-N-AS. In words: Antiproliferative activity against human SK-N-AS cells assessed as inhibition of cell growth incubated for 48 hrs by CCK-8 assay. It counts as functional, cell-based.
Assay [11] has as its system MDA-MB-231. In words: Antiproliferative activity against human MDA-MB-231 cells assessed as inhibition of cell growth incubated for 48 hrs by CCK-8 assay. It is filed as functional, cell-based. Conditions: MDA-MB-231, 48 h.
Assay [12] has as its system A-375. In words: Antiproliferative activity against human A-375 cells assessed as inhibition of cell growth incubated for 48 hrs by CCK-8 assay. Conditions: A-375, 48 h. It counts as functional, cell-based.
Assay [13] deals with DU-145. The assay is described as follows: Antiproliferative activity against human DU-145 cells assessed as inhibition of cell growth incubated for 48 hrs by CCK-8 assay. Conditions: DU-145, 48 h. It is filed as functional, cell-based.
The test system of assay [14] is NCI-H1299. The assay is described as follows: Antiproliferative activity against human NCI-H1299 cells assessed as inhibition of cell growth incubated for 48 hrs by CCK-8 assay. The conditions noted are these: NCI-H1299, 48 h. It counts as functional, cell-based.
In assay [15] the test system is VCaP. The assay is described as follows: Antiproliferative activity against human VCaP cells assessed as inhibition of cell growth incubated for 48 hrs by CCK-8 assay. It counts as functional, cell-based.
The test system of assay [16] is A549. In words: Antiproliferative activity against human A549 cells assessed as inhibition of cell growth incubated for 48 hrs by CCK-8 assay. The conditions noted are these: A549, 48 h. It is filed as functional, cell-based.
Assay [17] concerns MCF7. The assay is described as follows: Antiproliferative activity against human MCF7 cells assessed as inhibition of cell growth incubated for 48 hrs by CCK-8 assay. It counts as functional, cell-based. Conditions: MCF7, 48 h.
Assay [18] concerns HepG2. In words: Antiproliferative activity against human HepG2 cells assessed as inhibition of cell growth incubated for 48 hrs by CCK-8 assay. Conditions: HepG2, 48 h. It is filed as functional, cell-based.
Assay [19] relates to HT-29. In words: Induction of cell cycle arrest in human HT-29 cells assessed as accumulation of cells at G2 phase at 0.8 uM incubated for 36 hrs by PI-staining based flow cytometry. It counts as functional. (In general: A flow cytometer gives signals particle by particle.)
Assay [20] deals with HT-29. In words: Inhibition of cell migration in human HT-29 cells at 0.2 to 0.8 uM incubated for 48 hrs by wound healing assay. It counts as functional, cell-based. Conditions: dose 0.2-0.8 µM.
Assay [21] concerns HT-29. In words: Induction of apoptosis in human HT-29 cells assessed as late apoptotic cells at 0.8 uM incubated for 48 hrs by Annexin V-FITC/PI staining based flow cytometric analysis (reference value: 5.87 %). It counts as functional.
The subject of assay [22] is HT-29. In words: Induction of apoptosis in human HT-29 cells assessed as necrotic cells at 0.8 uM incubated for 48 hrs by Annexin V-FITC/PI staining based flow cytometric analysis (reference value: 2.48 %). It is filed as functional.
For assay [23], the system named is DU-145. In words: Antiproliferative activity against human DU-145 cells assessed as inhibition of cell growth at 20 uM incubated for 48 hrs by CCK-8 assay relative to control. It counts as functional.
In assay [24] the test system is HT-29. The assay is described as follows: Induction of apoptosis in human HT-29 cells assessed as necrotic cells at 0.2 uM incubated for 48 hrs by Annexin V-FITC/PI staining based flow cytometric analysis (reference value: 2.48 %). It counts as functional.
The subject of assay [25] is Calu-3. The assay is described as follows: Antiproliferative activity against human Calu-3 cells assessed as inhibition of cell growth at 20 uM incubated for 48 hrs by CCK-8 assay relative to control. It is filed as functional.
For assay [26], the system named is HT-29. In words: Induction of apoptosis in human HT-29 cells assessed as viable cells at 0.8 uM incubated for 48 hrs by Annexin V-FITC/PI staining based flow cytometric analysis (reference value: 90.4 %). It counts as functional. The conditions noted are these: read-out: Activity.
The test system of assay [27] is HT-29. The assay is described as follows: Induction of apoptosis in human HT-29 cells assessed as early apoptotic cells at 0.2 uM incubated for 48 hrs by Annexin V-FITC/PI staining based flow cytometric analysis (reference value: 1.22 %). It is filed as functional.
Assay [28] concerns HT-29. The assay is described as follows: Induction of apoptosis in human HT-29 cells assessed as late apoptotic cells at 0.4 uM incubated for 48 hrs by Annexin V-FITC/PI staining based flow cytometric analysis (reference value: 5.87 %). It counts as functional.
Assay [29] concerns HT-29. The assay is described as follows: Inhibition of colony formation in human HT-29 cells incubated for 24 hrs by crystal violet staining based analysis. It is filed as functional, cell-based. Conditions: dose 0.1-0.4 µM.
For assay [30], the system named is HT-29. In words: Induction of apoptosis in human HT-29 cells assessed as early apoptotic cells at 0.8 uM incubated for 48 hrs by Annexin V-FITC/PI staining based flow cytometric analysis (reference value: 1.22 %). It counts as functional.
The subject of assay [31] is HT-29. The assay is described as follows: Induction of apoptosis in human HT-29 cells assessed as viable cells at 0.4 uM incubated for 48 hrs by Annexin V-FITC/PI staining based flow cytometric analysis (reference value: 90.4 %). It is filed as functional. Conditions: read-out: Activity.
The test system of assay [32] is HT-29. The assay is described as follows: Induction of apoptosis in human HT-29 cells assessed as late apoptotic cells at 0.2 uM incubated for 48 hrs by Annexin V-FITC/PI staining based flow cytometric analysis (reference value: 5.87 %). It is filed as functional.
The target of assay [33] is von Hippel-Lindau disease tumor suppressor/Transmembrane protease serine 2 (Homo sapiens) (UniProt O15393+P40337). The assay is described as follows: PROTAC activity at VHL/TMPRSS2 in human HT-29 cells assessed as induction of TMPRSS2 degradation at 2.5 uM incubated for 24 hrs by Western blotting analysis. It counts as cell-based.
Assay [34] relates to HT-29. In words: Antiproliferative activity against human HT-29 cells assessed as inhibition of cell growth at 20 uM incubated for 48 hrs by CCK-8 assay relative to control. It is filed as functional.
Assay [35] has as its system HT-29. In words: Induction of apoptosis in human HT-29 cells assessed as viable cells at 0.2 uM incubated for 48 hrs by Annexin V-FITC/PI staining based flow cytometric analysis (reference value: 90.4 %). It is filed as functional. Conditions: read-out: Activity.
Assay [36] has as its system HT-29. In words: Induction of apoptosis in human HT-29 cells assessed as early apoptotic cells at 0.4 uM incubated for 48 hrs by Annexin V-FITC/PI staining based flow cytometric analysis (reference value: 1.22 %). It is filed as functional.
The subject of assay [37] is HT-29. The assay is described as follows: Induction of apoptosis in human HT-29 cells assessed as necrotic cells at 0.4 uM incubated for 48 hrs by Annexin V-FITC/PI staining based flow cytometric analysis (reference value: 2.48 %). It is filed as functional.

Molecules are shown by their SMILES. Calls of active or inactive are those of the source. No cut-off for these calls is given here. Some results are limits rather than exact numbers.

Sequence of von Hippel-Lindau disease tumor suppressor/Transmembrane protease serine 2 (Homo sapiens) (O15393 whole entry, looked up): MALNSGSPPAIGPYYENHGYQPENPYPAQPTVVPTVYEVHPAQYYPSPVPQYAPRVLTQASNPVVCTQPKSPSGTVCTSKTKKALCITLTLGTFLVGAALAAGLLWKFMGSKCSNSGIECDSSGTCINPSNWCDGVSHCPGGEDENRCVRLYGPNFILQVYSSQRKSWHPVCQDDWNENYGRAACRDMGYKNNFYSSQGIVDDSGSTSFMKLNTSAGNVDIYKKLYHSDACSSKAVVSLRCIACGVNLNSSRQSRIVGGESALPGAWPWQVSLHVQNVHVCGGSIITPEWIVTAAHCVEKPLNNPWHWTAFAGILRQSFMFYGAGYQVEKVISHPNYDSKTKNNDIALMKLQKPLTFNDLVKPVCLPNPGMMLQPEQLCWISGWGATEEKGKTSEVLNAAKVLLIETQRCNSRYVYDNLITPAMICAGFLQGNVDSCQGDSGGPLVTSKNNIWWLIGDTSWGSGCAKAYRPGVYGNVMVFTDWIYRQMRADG
Sequence of von Hippel-Lindau disease tumor suppressor/Transmembrane protease serine 2 (Homo sapiens) (P40337 whole entry, looked up): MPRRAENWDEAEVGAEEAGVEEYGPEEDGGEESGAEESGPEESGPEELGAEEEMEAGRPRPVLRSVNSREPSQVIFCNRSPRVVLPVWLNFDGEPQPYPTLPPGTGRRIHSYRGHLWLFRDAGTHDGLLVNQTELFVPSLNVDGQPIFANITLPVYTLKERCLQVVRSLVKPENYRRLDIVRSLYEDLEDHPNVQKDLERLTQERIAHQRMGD

With `CC(=O)O[C@H]1C(=O)[C@@]2(C)[C@H]([C@H](OC(=O)c3ccccc3)[C@]3(O)C[C@H](OC(=O)[C@H](O)[C@@H](NC(=O)c4ccccc4)c4ccccc4)C(C)=C1C3(C)C)[C@]1(OC(C)=O)CO[C@@H]1C[C@@H]2O` [PACLITAXEL], the half-inhibitory concentration (IC50) amounted to 0.11 µM in [1]; 0.01 µM in [2]; 7.56 µM in assay [3]; 37.2 µM in assay [4]; 0.01 µM in assay [5]; 0.04 µM in assay [6]. Besides, the IC50 worked out at 0.01 µM in assay [7]; 0.01 µM in assay [8]; 0.08 µM in [9]; 0.01 µM in assay [10]; 0.06 µM in assay [11]; 0.01 µM in assay [12]. The IC50 is 0.01 µM in assay [13], 1.15 µM in assay [14] and 5.54 µM in [15].

For `N=C(N)Nc1ccc(C(=O)Oc2ccc3cc(C(=N)N)ccc3c2)cc1` [NAFAMOSTAT], the half-inhibitory concentration (IC50) in assay [1] was over 40 µM; in assay [2] it was over 40 µM; in assay [16] it was over 40 µM; in assay [17], over 40 µM; in assay [3] it was 39.9 µM; in assay [18], over 40 µM. The half-inhibitory concentration (IC50) in [4] is 37.9 µM; in [5], 37.1 µM; in assay [6] it was over 40 µM; in assay [7] it was over 40 µM; in assay [8], over 40 µM; in [9], over 40 µM. The 50% inhibitory concentration (IC50) is over 40 µM in [10]; over 40 µM in [11]; over 40 µM in assay [12]; over 40 µM in [13]; 19.2 µM in [14]; over 40 µM in assay [15].

For the molecule `Cc1ncsc1-c1ccc([C@H](C)NC(=O)[C@@H]2C[C@@H](O)CN2C(=O)[C@@H](NC(=O)CN2CCC(CN3CCN(c4ccc(NC(=O)c5cc(F)c(NC(=N)N)cc5F)cc4)CC3)CC2)C(C)(C)C)cc1.Cl`, the result in assay [19], in assay [20] and in [33] was Active. Further, the IC50 in [1] was over 40 µM; in assay [2], 14.9 µM; in [16], 12.3 µM; in assay [17], 13.3 µM; in [3], 24.5 µM; in [18], 8.73 µM. Further, the IC50 in [4] turned out to be 1.62 µM; in assay [5] it was 18 µM; in [6], 20 µM; in [7] it was 0.39 µM; in [8] it was 9.01 µM; in assay [9] it was 34.8 µM. The IC50 was 6.91 µM in assay [10]; 10.7 µM in assay [11]; 9.63 µM in assay [12]; 5.26 µM in assay [13]; over 40 µM in assay [14]; 7.57 µM in [15]. Moreover, the Activity was determined as 23.2% in assay [21]; 3.01% in assay [22]; 6.59% in assay [24]; 1.58% in [27]; 11.6% in assay [28]; 15.3% in [30]. Further, the Activity in assay [32] was determined as 13%; in [36], 3.74%; in assay [37] it was 4.21%. The inhibition at 20 µM is 74.6% in assay [23], 96.1% in assay [25] and 94.6% in assay [34]. The viability at 0.8 µM in assay [26] turned out to be 58.5%. The inhibition result in assay [29] is “Dose-dependent-effect”. Moreover, the viability at 0.4 µM in assay [31] came out at 80.4%. For the same molecule, the viability at 0.2 µM in assay [35] turned out to be 78.8%.

For `Cc1ncsc1-c1ccc(CNC(=O)[C@@H]2C[C@@H](O)CN2C(=O)[C@@H](NC(=O)CN2CCC(CN3CCN(c4ccc(NC(=O)c5ccc(NC(=N)N)cc5F)cc4)CC3)CC2)C(C)(C)C)cc1`, the IC50 is over 40 µM in [1]; 35.1 µM in assay [16]; 21.4 µM in [4]; 3.83 µM in assay [7]; 11.2 µM in assay [13]. In addition, the inhibition at 20 µM is 56.9% in assay [23], 47.5% in [25] and 91.9% in [34].

The term IC50 denotes the concentration needed to halve the response being measured. As usually defined, the inhibition is the drop in the measured response relative to a control, in per cent.
